{
  "source": "EPA's ToxRefDB 2",
  "key": {"rat [1]": {"test_system": "rat", "settings": "Sub-acute repeat dose toxicity, sprague dawley, Oral, Gavage/Intubation, dose end: 14 day, group: systemic"}, "mouse": {"test_system": "mouse", "settings": "Sub-acute repeat dose toxicity; Oral; Feed; dose end: 10 day; group: systemic; systemic / in life observation / body weight / body weight + systemic / in life observation / food consumption / food consumption"}, "rat [2]": {"test_system": "rat", "settings": "Subchronic oral toxicity in rodents, sprague dawley, Gavage/Intubation, dose end: 91 day, group: systemic"}, "dog [3]": {"test_system": "dog", "settings": "Subchronic oral toxicity in nonrodent, beagle, Gavage/Intubation, dose end: 91 day, group: systemic"}, "rat [4]": {"test_system": "rat", "settings": "Sub-acute repeat dose toxicity, sprague dawley, Oral, Gavage/Intubation, dose end: 12 day, group: systemic"}, "rat [5]": {"test_system": "rat", "settings": "Sub-acute repeat dose toxicity, sprague dawley, Oral, Feed, dose end: 10 day, group: systemic"}, "rabbit": {"test_system": "rabbit", "settings": "Sub-acute repeat dose toxicity; new zealand white; Oral; Gavage/Intubation; dose end: 4 day; group: systemic; systemic / in life observation / clinical signs / erythema + systemic / in life observation / clinical signs / tachypnea"}, "dog [6]": {"test_system": "dog", "settings": "Sub-acute repeat dose toxicity, beagle, Oral, Gavage/Intubation, dose end: 15 day, group: systemic"}, "[7]": {"settings": "systemic / pathology microscopic / blood vessel / arteritis + systemic / in life observation / body weight / body weight"}, "[8]": {"settings": "systemic / organ weight / heart / absolute + systemic / pathology microscopic / thyroid gland / hypertrophy + systemic / in life observation…"}, "[9]": {"settings": "systemic / clinical chemistry / alkaline phosphatase (alp/alk) / alkaline phosphatase (alp/alk) + systemic / clinical chemistry / bilirubin…"}, "[10]": {"settings": "systemic / in life observation / clinical signs / emesis"}, "[11]": {"settings": "systemic / in life observation / clinical signs / salivation"}, "[12]": {"settings": "systemic / in life observation / clinical signs / salivation + systemic / in life observation / food consumption / food consumption + …"}, "[13]": {"settings": "systemic / in life observation / body weight / body weight + systemic / in life observation / clinical signs / drooping eyelids (ptosis) + …"}, "[14]": {"settings": "systemic / in life observation / body weight / body weight + systemic / in life observation / clinical signs / lacrimation or red-colored …"}, "[15]": {"settings": "systemic / in life observation / clinical signs / arrhythmia + systemic / in life observation / clinical signs / emesis"}, "[16]": {"settings": "systemic / in life observation / clinical signs / arrhythmia + systemic / in life observation / clinical signs / emesis + systemic / in life…"}},
  "data": [
    {"compound": "CCCOc1ccc(S(=O)(=O)N2CCN(CC)CC2)cc1-c1nc2c(CC)n(Cc3ccccn3)nc2c(=O)[nH]1", "values": [
      {"measurement": "NEL", "setting": "rat [1]; systemic / pathology microscopic / blood vessel / arteritis", "value": 45, "unit": "mg/kg/day"},
      {"measurement": "LEL", "setting": "rat [1]; [7]", "value": 200, "unit": "mg/kg/day"},
      {"measurement": "LOAEL", "setting": "rat [1]; [7]", "value": "> 200", "unit": "mg/kg/day"},
      {"measurement": "NOAEL", "setting": "rat [1]; [7]", "value": "≥ 200", "unit": "mg/kg/day"},
      {"measurement": "LEL", "setting": "mouse", "value": 2000, "unit": "mg/kg/day"},
      {"measurement": "LOAEL", "setting": "mouse", "value": "> 2000", "unit": "mg/kg/day"},
      {"measurement": "NOAEL", "setting": "mouse", "value": "≥ 2000", "unit": "mg/kg/day"},
      {"measurement": "NEL", "setting": "rat [2]; systemic / organ weight / heart / absolute + systemic / pathology microscopic / thyroid gland / hypertrophy", "value": 25, "unit": "mg/kg/day"},
      {"measurement": "LEL", "setting": "rat [2]; [8]", "value": 100, "unit": "mg/kg/day"},
      {"measurement": "LOAEL", "setting": "rat [2]; [8]", "value": "> 400", "unit": "mg/kg/day"},
      {"measurement": "NOAEL", "setting": "rat [2]; [8]", "value": "≥ 400", "unit": "mg/kg/day"},
      {"measurement": "LOAEL", "setting": "dog [3]; [9]", "value": "> 100", "unit": "mg/kg/day"},
      {"measurement": "NOAEL", "setting": "dog [3]; [9]", "value": "≥ 100", "unit": "mg/kg/day"},
      {"measurement": "LEL", "setting": "dog [3]; [10]", "value": 10, "unit": "mg/kg/day"},
      {"measurement": "NEL", "setting": "dog [3]; [10]", "value": "< 10", "unit": "mg/kg/day"},
      {"measurement": "LEL", "setting": "rat [4]; [11]", "value": 100, "unit": "mg/kg/day"},
      {"measurement": "NEL", "setting": "rat [4]; [11]", "value": "< 100", "unit": "mg/kg/day"},
      {"measurement": "LOAEL", "setting": "rat [4]; [12]", "value": "> 400", "unit": "mg/kg/day"},
      {"measurement": "NOAEL", "setting": "rat [4]; [12]", "value": "≥ 400", "unit": "mg/kg/day"},
      {"measurement": "LOAEL", "setting": "rat [5]; [13]", "value": "> 2000", "unit": "mg/kg/day"},
      {"measurement": "NOAEL", "setting": "rat [5]; [13]", "value": "≥ 2000", "unit": "mg/kg/day"},
      {"measurement": "LEL", "setting": "rat [5]; [14]", "value": 500, "unit": "mg/kg/day"},
      {"measurement": "NEL", "setting": "rat [5]; [14]", "value": "< 500", "unit": "mg/kg/day"},
      {"measurement": "LEL", "setting": "rabbit", "value": 400, "unit": "mg/kg/day"},
      {"measurement": "LOAEL", "setting": "rabbit", "value": "> 400", "unit": "mg/kg/day"},
      {"measurement": "NEL", "setting": "rabbit", "value": "< 400", "unit": "mg/kg/day"},
      {"measurement": "NOAEL", "setting": "rabbit", "value": "≥ 400", "unit": "mg/kg/day"},
      {"measurement": "LEL", "setting": "dog [6]; [15]", "value": 15, "unit": "mg/kg/day"},
      {"measurement": "NEL", "setting": "dog [6]; [15]", "value": "< 15", "unit": "mg/kg/day"},
      {"measurement": "LOAEL", "setting": "dog [6]; [16]", "value": "> 150", "unit": "mg/kg/day"},
      {"measurement": "NOAEL", "setting": "dog [6]; [16]", "value": "≥ 150", "unit": "mg/kg/day"}
    ]}
  ]
}
